Results on 19 molecules are retold here after US11130748B2, “Compounds” (MISSION THERAPEUTICS LIMITED, priority 2015, dated 2021).

As a reminder, the IC50 is the concentration that gives 50% inhibition.

The assay addresses USP30 (Homo sapiens (Human), UniProt Q70CQ3). The experiment in a line: USP30 biochemical IC50 assay. The note with it: fluorescence polarisation, TAMRA labelled peptide linked to ubiquitin; 30 min pre-incubation, 2 hr read; read-out: IC50 range. The procedure: USP30 Biochemical IC50 Assay
Dilution plates were prepared at 21 times the final concentration (2100 μM for a final concentration of 100 μM) in 50% DMSO in a 96-well polypropylene V-bottom plate (Greiner #651201). A typical 8-point dilution series to be 100, 30, 10, 3, 1, 0.3, 0.1, 0.03 μM final. Reactions were performed in duplicate in black 384 well plates (small volume, Greiner 784076) in a final reaction volume of 21 μl. Either 1 μl of 50% DMSO or diluted compound was added to the plate. USP30 was diluted in reaction buffer (40 mM Tris, pH 7.5, 0.005% Tween 20, 0.5 mg/ml BSA, 5 mM beta-mercaptoethanol) to the equivalent of 0.05 μl/well and 10 μl of diluted USP30 was added to the compound. Enzyme and compound were incubated for 30 min at room temp. Reactions were initiated by the addition of 50 nM of TAMRA labelled peptide linked to ubiquitin via an iso-peptide bond as fluorescence polarisation substrate. Reactions were read immediately after addition of substrate and following a 2 hr incubation at room temperature. Readings were performed on a Pherastar Plus (BMG Labtech). λ Excitation 540 nm; λ Emission 590 nm.

USP30, sequence (Q70CQ3 57-517): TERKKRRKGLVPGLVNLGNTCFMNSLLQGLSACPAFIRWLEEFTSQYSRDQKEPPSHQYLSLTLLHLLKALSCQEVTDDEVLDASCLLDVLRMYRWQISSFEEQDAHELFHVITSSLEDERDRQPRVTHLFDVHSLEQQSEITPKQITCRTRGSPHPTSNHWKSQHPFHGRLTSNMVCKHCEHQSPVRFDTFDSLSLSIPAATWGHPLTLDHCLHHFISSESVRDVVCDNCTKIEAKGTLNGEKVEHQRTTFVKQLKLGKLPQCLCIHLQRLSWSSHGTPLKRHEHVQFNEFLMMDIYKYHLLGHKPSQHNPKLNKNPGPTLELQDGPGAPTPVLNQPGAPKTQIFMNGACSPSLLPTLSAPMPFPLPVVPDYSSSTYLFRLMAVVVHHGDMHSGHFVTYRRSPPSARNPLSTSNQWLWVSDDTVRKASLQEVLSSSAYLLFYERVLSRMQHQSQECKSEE

With `Cc1oncc1-c1ccc2nc(NC(C)C3CCN(C#N)C3)sc2c1` (stereo not shown) [Example 48, 3-(1-((6-(5-Methylisoxazol-4-yl)benzo[d]thiazol-2-yl)amino)ethyl)pyrrolidine-1-carbonitrile], the half-maximal inhibitory concentration (IC50) was 100 to 1000 nM. To `CC(Nc1nc2ccc(-c3cn[nH]c3)cc2s1)C1CCN(C#N)C1` (stereo not shown) [Example 49, 3-(1-((6-(1H-Pyrazol-4-yl)benzo[d]thiazol-2-yl)amino)ethyl)pyrrolidine-1-carbonitrile] belongs 100 to 1000 nM; to `CC(Nc1cc2ccccc2cn1)C1CCN(C#N)C1` (stereo not shown) [Example 50, 3-(1-(Isoquinolin-3-ylamino)ethyl)pyrrolidine-1-carbonitrile], 1000 to 10000 nM.

Take `CC(Nc1cc2cc(C#N)ccc2cn1)C1CCN(C#N)C1` (stereo not shown) [Example 51, 3-((1-(1-Cyanopyrrolidin-3-yl)ethyl)amino)isoquinoline-6-carbonitrile]: the IC50 is 1000 to 10000 nM. To `N#CC(Nc1nc2ccccc2s1)C1CCN(C#N)C1` (stereo not shown) [Example 52, 3-((Benzo[d]thiazol-2-ylamino)(cyano)methyl)pyrrolidine-1-carbonitrile] belongs 100 to 1000 nM.

As for `CC(Nc1nc2ccc(C#N)cc2s1)C1CCN(C#N)C1` (stereo not shown) [Example 53, 2-((1-(1-Cyanopyrrolidin-3-yl)ethyl)amino)benzo[d]thiazole-6-carbonitrile], the IC50 lay in the range of 1000 to 10000 nM. The figure for `N#CN1C[C@H]2CN(c3ncc(-c4ccccc4)s3)C(=O)[C@H]2C1` [Example 54, (3aR,6aS)-4-Oxo-5-(5-phenylthiazol-2-yl)hexahydropyrrolo[3,4-c]pyrrole-2(1H)-carbonitrile] is 1000 to 10000 nM; for `N#CN1CC[C@H](CNC(=O)c2cc(-c3cccc(Cl)c3)no2)C1` [Example 55, (R)-3-(3-Chlorophenyl)-N-((1-cyanopyrrolidin-3-yl)methyl)isoxazole-5-carboxamide] it is under 100 nM. `N#CN1CC[C@H](CNC(=O)c2nc3ccccc3[nH]2)C1` [Example 56]: the IC50 was in the range of 1000 to 10000 nM. The figure for `N#CN1CC[C@H](CNC(=O)c2cc3ccccc3cn2)C1` [Example 57] is 1000 to 10000 nM. To `N#CN1CC[C@H](CNC(=O)c2cc(-c3ccccc3)ccn2)C1` [Example 59] belongs 100 to 1000 nM. In the case of `N#CN1CC[C@H](CNC(=O)c2ccc(-c3ccccc3)cn2)C1` [Example 60], the IC50 was in the range of 100 to 1000 nM. The figure for `N#CN1CC[C@H](CNC(=O)c2cn3ccc(Cl)cc3n2)C1` [Example 65, (R)-7-Chloro-N-((1-cyano-pyrrolidin-3-yl)methyl) imidazo[1,2-a] pyridine-2-carboxamide] is 1000 to 10000 nM; for `N#Cc1cccc(-c2nnc(C(=O)NC[C@H]3CCN(C#N)C3)o2)c1` [Example 68, (R)-5-(3-Cyanophenyl)-N-((1-cyanopyrrolidin-3-yl)methyl)-1,3,4-oxadiazole-2-carboxamide] it is under 100 nM. To `N#Cc1cccc(-c2nnc(C(=O)NC[C@@H]3CCN(C#N)C3)o2)c1` [Example 69, (S)-5-(3-Cyanophenyl)-N-((1-cyanopyrrolidin-3-yl)methyl)-1,3,4-oxadiazole-2-carboxamide] belongs under 100 nM; to `N#CN1CC[C@H](CNC(=O)c2cn(-c3ccccc3)cn2)C1` [Example 70, (R)—N-((1-Cyanopyrrolidin-3-yl)methyl)-1-phenyl-1H-imidazole-4-carboxamide], 1000 to 10000 nM. With `N#Cc1cccc(-n2cnc(C(=O)NC[C@H]3CCN(C#N)C3)c2)c1` [Example 71, (R)-1-(3-Cyanophenyl)-N-((1-cyanopyrrolidin-3-yl)methyl)-1H-imidazole-4-carboxamide], the IC50 is under 100 nM. The figure for `COc1ccccc1-n1cnc(C(=O)NC[C@H]2CCN(C#N)C2)c1` [Example 73, (R)—N-((1-Cyanopyrrolidin-3-yl)methyl)-1-(2-methoxyphenyl)-1H-imidazole-4-carboxamide] is 100 to 1000 nM; for `COc1cccc(-n2cnc(C(=O)NC[C@H]3CCN(C#N)C3)c2)c1` [Example 74, (R)—N-((1-Cyanopyrrolidin-3-yl)methyl)-1-(3-methoxyphenyl)-1H-imidazole-4-carboxamide] it is 100 to 1000 nM.
